# Like-named read-outs stand apart in the source and are kept apart here.
# Tests used:
# [1] = target: AEA-DA lipid probe targets in Neuro2a cells (Mus musculus, UniProt O55143)
# [2] = target: AEA-DA lipid probe targets in Neuro2a cells (Mus musculus, UniProt P08113)
# [3] = target: T1, AEA-DA lipid probe targets in Neuro2a cells (Mus musculus, UniProt Q3U9G9)
# T1 sequence (Q3U9G9 1-626): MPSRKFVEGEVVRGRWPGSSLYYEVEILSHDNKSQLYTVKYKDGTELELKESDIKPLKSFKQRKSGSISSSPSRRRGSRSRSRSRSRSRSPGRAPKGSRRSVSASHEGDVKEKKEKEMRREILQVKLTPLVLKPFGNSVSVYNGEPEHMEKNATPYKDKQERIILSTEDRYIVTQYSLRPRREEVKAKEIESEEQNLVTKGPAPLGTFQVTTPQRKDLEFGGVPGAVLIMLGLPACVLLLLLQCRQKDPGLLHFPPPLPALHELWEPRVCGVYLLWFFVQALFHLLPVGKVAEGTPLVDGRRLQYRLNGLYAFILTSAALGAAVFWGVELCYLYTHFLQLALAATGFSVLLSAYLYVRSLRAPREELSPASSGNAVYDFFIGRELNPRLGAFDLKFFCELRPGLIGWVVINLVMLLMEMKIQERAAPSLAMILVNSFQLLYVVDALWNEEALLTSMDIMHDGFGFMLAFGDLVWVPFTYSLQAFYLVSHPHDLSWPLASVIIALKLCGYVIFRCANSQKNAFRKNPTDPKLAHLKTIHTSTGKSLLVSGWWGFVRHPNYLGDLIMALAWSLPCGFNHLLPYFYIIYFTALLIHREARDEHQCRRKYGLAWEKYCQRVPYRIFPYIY
# [4] = target: T2, AEA-DA lipid probe targets in Neuro2a cells (Mus musculus, UniProt Q60692)
# T2 sequence (Q60692 1-238): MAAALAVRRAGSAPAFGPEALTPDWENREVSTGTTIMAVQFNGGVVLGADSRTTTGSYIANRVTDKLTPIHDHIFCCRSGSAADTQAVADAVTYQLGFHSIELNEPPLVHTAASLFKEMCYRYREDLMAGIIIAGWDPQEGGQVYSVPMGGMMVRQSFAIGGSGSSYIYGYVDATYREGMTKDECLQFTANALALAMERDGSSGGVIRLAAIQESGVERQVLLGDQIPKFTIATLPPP
# [5] = target: T3, AEA-DA lipid probe targets in Neuro2a cells (Mus musculus, UniProt Q61753)
# T3 sequence (Q61753 1-533): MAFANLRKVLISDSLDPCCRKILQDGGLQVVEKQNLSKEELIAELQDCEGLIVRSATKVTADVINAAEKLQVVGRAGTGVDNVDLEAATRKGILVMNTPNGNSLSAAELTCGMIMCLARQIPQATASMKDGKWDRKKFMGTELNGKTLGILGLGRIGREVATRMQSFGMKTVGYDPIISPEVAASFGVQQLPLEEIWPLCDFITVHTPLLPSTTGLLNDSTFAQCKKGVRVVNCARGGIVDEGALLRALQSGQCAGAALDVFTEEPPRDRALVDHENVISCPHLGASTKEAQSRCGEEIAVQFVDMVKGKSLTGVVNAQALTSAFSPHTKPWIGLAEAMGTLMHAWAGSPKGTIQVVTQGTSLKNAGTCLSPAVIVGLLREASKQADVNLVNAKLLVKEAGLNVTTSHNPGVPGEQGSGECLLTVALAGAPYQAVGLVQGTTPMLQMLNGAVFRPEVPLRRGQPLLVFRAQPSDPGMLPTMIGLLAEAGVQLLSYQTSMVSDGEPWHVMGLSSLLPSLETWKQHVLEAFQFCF
# [6] = target: T4, AEA-DA lipid probe targets in Neuro2a cells (Mus musculus, UniProt Q8K411)
# T4 sequence (Q8K411 16-1036): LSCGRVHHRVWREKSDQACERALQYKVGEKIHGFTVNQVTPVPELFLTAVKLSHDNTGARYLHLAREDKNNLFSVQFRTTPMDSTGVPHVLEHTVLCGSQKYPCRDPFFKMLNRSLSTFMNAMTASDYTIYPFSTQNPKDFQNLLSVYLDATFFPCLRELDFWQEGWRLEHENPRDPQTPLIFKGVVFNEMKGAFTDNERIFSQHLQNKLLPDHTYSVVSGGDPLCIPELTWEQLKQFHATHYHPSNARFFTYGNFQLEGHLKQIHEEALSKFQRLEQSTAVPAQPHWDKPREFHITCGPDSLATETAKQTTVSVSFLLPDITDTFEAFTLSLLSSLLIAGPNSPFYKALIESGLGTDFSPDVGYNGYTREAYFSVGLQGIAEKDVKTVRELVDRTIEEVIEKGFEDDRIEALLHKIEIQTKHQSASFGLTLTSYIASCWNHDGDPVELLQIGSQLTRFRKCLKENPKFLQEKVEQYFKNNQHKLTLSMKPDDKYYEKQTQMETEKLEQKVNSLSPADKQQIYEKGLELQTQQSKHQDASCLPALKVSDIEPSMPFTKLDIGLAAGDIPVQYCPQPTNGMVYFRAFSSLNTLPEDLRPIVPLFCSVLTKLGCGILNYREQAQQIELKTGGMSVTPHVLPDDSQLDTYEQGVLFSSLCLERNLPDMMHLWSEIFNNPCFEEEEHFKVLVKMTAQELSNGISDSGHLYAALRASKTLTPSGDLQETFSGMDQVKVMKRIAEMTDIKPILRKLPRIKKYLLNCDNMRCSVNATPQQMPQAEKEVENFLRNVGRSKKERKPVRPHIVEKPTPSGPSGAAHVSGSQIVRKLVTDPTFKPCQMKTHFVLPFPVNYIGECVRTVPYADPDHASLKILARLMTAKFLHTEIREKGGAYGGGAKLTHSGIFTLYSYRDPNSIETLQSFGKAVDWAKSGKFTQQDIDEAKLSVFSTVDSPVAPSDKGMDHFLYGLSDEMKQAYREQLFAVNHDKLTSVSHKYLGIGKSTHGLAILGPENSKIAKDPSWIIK
# [7] = target: T5, AEA-DA lipid probe targets in Neuro2a cells (Mus musculus, UniProt Q8R1L4)
# T5 sequence (Q8R1L4 1-214): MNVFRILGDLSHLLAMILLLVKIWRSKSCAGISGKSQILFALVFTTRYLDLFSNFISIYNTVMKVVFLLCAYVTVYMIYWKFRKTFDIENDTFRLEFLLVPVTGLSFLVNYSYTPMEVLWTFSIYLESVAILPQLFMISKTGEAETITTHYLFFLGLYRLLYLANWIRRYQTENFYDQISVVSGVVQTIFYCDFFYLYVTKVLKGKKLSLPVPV
# AEA-DA lipid probe targets in Neuro2a cells (Mus musculus, UniProt O55143), sequence (O55143 whole entry): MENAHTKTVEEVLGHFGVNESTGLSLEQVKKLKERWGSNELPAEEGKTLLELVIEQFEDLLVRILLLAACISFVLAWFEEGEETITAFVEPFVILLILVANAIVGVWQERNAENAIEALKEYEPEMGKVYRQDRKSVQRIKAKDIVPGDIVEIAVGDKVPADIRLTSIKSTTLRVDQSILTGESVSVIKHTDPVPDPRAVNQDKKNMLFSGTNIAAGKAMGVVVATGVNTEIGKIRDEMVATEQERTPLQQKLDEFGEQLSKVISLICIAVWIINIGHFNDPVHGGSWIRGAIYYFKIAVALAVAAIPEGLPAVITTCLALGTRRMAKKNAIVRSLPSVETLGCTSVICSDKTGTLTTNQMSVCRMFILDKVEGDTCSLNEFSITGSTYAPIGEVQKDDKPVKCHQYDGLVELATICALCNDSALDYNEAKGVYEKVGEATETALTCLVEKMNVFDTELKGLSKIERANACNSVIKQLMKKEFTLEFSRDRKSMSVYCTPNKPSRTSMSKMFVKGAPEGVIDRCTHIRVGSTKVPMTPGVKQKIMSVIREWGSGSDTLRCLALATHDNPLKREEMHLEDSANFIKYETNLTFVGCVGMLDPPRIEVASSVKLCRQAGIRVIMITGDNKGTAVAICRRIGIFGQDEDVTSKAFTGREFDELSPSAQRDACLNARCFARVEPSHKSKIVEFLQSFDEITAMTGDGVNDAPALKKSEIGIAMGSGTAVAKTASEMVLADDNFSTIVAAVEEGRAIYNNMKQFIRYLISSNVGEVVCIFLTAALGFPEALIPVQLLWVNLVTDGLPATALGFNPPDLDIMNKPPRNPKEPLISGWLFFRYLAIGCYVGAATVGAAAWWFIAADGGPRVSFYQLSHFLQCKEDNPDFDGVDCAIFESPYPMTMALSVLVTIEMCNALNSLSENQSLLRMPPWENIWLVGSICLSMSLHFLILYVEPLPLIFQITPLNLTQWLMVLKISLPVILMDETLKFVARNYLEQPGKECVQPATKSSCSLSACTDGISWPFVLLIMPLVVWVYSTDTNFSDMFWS
# AEA-DA lipid probe targets in Neuro2a cells (Mus musculus, UniProt P08113), sequence (P08113 22-802): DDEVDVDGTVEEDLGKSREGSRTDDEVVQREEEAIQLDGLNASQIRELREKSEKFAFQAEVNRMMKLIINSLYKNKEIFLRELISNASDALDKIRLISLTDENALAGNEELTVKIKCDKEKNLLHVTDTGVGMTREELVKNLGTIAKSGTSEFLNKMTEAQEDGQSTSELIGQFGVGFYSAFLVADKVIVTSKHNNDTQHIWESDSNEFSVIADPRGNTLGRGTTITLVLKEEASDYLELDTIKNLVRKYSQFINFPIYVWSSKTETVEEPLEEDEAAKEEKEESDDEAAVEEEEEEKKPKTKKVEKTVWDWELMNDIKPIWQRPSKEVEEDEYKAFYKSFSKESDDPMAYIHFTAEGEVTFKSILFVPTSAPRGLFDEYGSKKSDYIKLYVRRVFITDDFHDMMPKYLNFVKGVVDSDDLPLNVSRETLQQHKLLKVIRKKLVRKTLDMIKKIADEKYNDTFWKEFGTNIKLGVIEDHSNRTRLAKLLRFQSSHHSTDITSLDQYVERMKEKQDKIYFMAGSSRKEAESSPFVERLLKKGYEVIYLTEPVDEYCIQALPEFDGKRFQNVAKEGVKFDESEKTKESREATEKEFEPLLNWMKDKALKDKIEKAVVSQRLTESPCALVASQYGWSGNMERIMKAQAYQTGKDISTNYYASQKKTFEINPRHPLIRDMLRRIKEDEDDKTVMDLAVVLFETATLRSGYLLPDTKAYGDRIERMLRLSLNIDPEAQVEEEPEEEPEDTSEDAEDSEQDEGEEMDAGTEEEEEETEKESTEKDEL
smiles,measurement,setting,value
"CCCCC/C=C\C/C=C\C/C=C\C/C=C\CCCC(=O)NCCO [AEA, anandamide, reference compound]","SILAC ratio, Atp2a2",[1]; competitor 200 μM,2.2
same,SILAC ratio Hsp90b1,[2]; competitor 200 μM,1.1
same,"SILAC ratio, Lbr",[3]; competitor 200 μM,2.0
same,SILAC ratio Psmb6,[4]; competitor 200 μM,1.4
same,SILAC ratio Phgdh,[5]; competitor 200 μM,1.2
same,"SILAC ratio, Pitrm1",[6]; competitor 200 μM,2.1
same,"SILAC ratio, Kdelr3",[7]; competitor 200 μM,1.2
"O=C(/C=C/c1cccnc1)NCCCCC1CCN(C(=O)c2ccccc2)CC1 [FK-866, reference compound]","SILAC ratio, Atp2a2",[1]; competitor 25 μM,1.1
same,SILAC ratio Hsp90b1,[2]; competitor 25 μM,1.2
same,"SILAC ratio, Lbr",[3]; competitor 25 μM,1.0
same,SILAC ratio Psmb6,[4]; competitor 25 μM,1.4
same,SILAC ratio Phgdh,[5]; competitor 25 μM,1.3
same,"SILAC ratio, Pitrm1",[6]; competitor 25 μM,1.4
same,"SILAC ratio, Kdelr3",[7]; competitor 25 μM,1.1
"CN1CCN(C(=O)c2c(-c3ccccc3)c3cc([N+](=O)[O-])ccc3n2C)CC1 [KML110, (1-Methyl-5-nitro-3-phenyl-1H-indol-2-yl)(4-methylpiperazin-1-yl)methanone]","SILAC ratio, Atp2a2",[1]; competitor 25 μM,1.3
same,SILAC ratio Hsp90b1,[2]; competitor 25 μM,1.4
same,"SILAC ratio, Lbr",[3]; competitor 25 μM,1.2
same,SILAC ratio Psmb6,[4]; competitor 25 μM,1.9
same,SILAC ratio Phgdh,[5]; competitor 25 μM,1.5
same,"SILAC ratio, Pitrm1",[6]; competitor 25 μM,2.0
same,"SILAC ratio, Kdelr3",[7]; competitor 25 μM,1.2
"CN1CCN(C(=O)c2[nH]c3ccc([N+](=O)[O-])cc3c2-c2ccccc2)CC1 [MJN228, (4-Methylpiperazin-1-yl)(5-nitro-3-phenyl-1H-indol-2-yl)methanone]","SILAC ratio, Atp2a2",[1]; competitor 10 μM,1.3
same,"SILAC ratio, Atp2a2",[1]; competitor 25 μM,1.4
same,"SILAC ratio, Atp2a2",[1]; competitor 50 μM,1.4
same,"SILAC ratio, Atp2a2",[1]; competitor 100 μM,1.9
same,SILAC ratio Hsp90b1,[2]; competitor 10 μM,1.3
same,SILAC ratio Hsp90b1,[2]; competitor 25 μM,1.3
same,SILAC ratio Hsp90b1,[2]; competitor 50 μM,1.5
same,SILAC ratio Hsp90b1,[2]; competitor 100 μM,1.4
same,"SILAC ratio, Lbr",[3]; competitor 10 μM,1.1
same,"SILAC ratio, Lbr",[3]; competitor 25 μM,1.3
same,"SILAC ratio, Lbr",[3]; competitor 50 μM,1.5
same,"SILAC ratio, Lbr",[3]; competitor 100 μM,1.8
same,SILAC ratio Psmb6,[4]; competitor 10 μM,1.3
same,SILAC ratio Psmb6,[4]; competitor 25 μM,1.5
same,SILAC ratio Psmb6,[4]; competitor 50 μM,1.4
same,SILAC ratio Psmb6,[4]; competitor 100 μM,2.5
same,SILAC ratio Phgdh,[5]; competitor 10 μM,1.2
same,SILAC ratio Phgdh,[5]; competitor 25 μM,1.1
same,SILAC ratio Phgdh,[5]; competitor 50 μM,0.9
same,SILAC ratio Phgdh,[5]; competitor 100 μM,1.1
same,"SILAC ratio, Pitrm1",[6]; competitor 10 μM,1.6
same,"SILAC ratio, Pitrm1",[6]; competitor 25 μM,1.9
same,"SILAC ratio, Pitrm1",[6]; competitor 50 μM,2.2
same,"SILAC ratio, Pitrm1",[6]; competitor 100 μM,3.4
same,"SILAC ratio, Kdelr3",[7]; competitor 10 μM,1.2
same,"SILAC ratio, Kdelr3",[7]; competitor 25 μM,1.3
same,"SILAC ratio, Kdelr3",[7]; competitor 50 μM,1.3
same,"SILAC ratio, Kdelr3",[7]; competitor 100 μM,1.6
"C=CCN(C)CCCCCCOc1ccc(C(=O)c2ccc(Br)cc2)c(F)c1 [Ro 48-8071, reference compound]","SILAC ratio, Atp2a2",[1]; competitor 25 μM,1.2
same,SILAC ratio Hsp90b1,[2]; competitor 25 μM,0.9
same,"SILAC ratio, Lbr",[3]; competitor 25 μM,1.9
same,SILAC ratio Psmb6,[4]; competitor 25 μM,1.0
same,SILAC ratio Phgdh,[5]; competitor 25 μM,1.0
same,"SILAC ratio, Pitrm1",[6]; competitor 25 μM,1.0
same,"SILAC ratio, Kdelr3",[7]; competitor 25 μM,0.9
